Key:
Nucleic Acid [1] = test: The apparent DNA binding constant to bind with calf thymus DNA was determined by ethidium displacement assay; type: nucleic-acid assay; settings: Bos taurus
Nucleic Acid [2] = test: The apparent DNA binding constant to bind with T4 DNA was determined by ethidium displacement assay; type: nucleic-acid assay

Q: `CN(C)CC/N=C(\N)c1cccc(NC(=O)c2cccc(NC=O)c2)c1` was tested. Which K app (Nucleic Acid [1]) did it give?
A: The K app was 65000 M⁻¹.

Q: And the K app (Nucleic Acid [2])?
A: Its K app is 120000 M⁻¹.

Q: Which K app (Nucleic Acid [1]) does the source give for `Cn1cc(NC(=O)c2cc(NC(=O)c3cc(NC=O)cn3C)cn2C)cc1C(=O)NCCC(=N)N` here?
A: The K app was 770000 M⁻¹.
